Values of other authors in patent US11304923B2, “Use of a benzoate containing composition to treat glycine encephalopathy” (Rush University Medical Center, priority 2017, dated 2022).

Key:
[1] = test system: disease process of multiple sclerosis (MS); settings: mice
DJ-1 = settings: astrocytes and neurons
[2] = test system: brain-derived neurotrophic factor (BDNF); settings: brain cells
neurotrophin-3 (NT-3) = settings: brain cells

SMILES: O=C([O-])c1ccccc1.[Na+] [sodium benzoate]
- disease process of multiple sclerosis (MS) [1]: suppresses
- DJ-1 protein level (DJ-1): up-regulates
- production of BDNF [2]: increases
- production of NT-3 (neurotrophin-3 (NT-3)): increases
